Data on 13 compounds can be found in patent US20210007356A1, “IMIDE DERIVATIVE AND FUNGICIDE CONTAINING SAID DERIVATIVE AS ACTIVE INGREDIENT” (HOKKO CHEMICAL INDUSTRY CO., LTD., priority 2018, published 2021).

Where two headings read alike, the source gives them in different places.

Assay [1] relates to rice sheath blight fungus (Thanatephorus cucumeris). In words: Test Example 8: control effect against rice sheath blight by box treatment (granule). To be noted: 5 g of granule on nursery box, paddy rice; inoculated after 3 weeks; 7 days after inoculation.
For assay [2] the test system is unchanged. In words: Test Example 10: control effect against rice sheath blight by water surface application (flowable formulation). To be noted: flowable 1,000 ppm, 1 mL dripped in paddy water, inoculated after 1 week, 7 days after inoculation.
Description: (§1) Control value (%)=[1−(lesion height in sprayed plot/lesion height in unsprayed plot)]×100 (d)
By dripping treatment in paddy water, 1 mL of a diluted solution (1,000 ppm) of a flowable prepared according to Formulation Example-3 was applied to a 5-leaf-stage paddy rice (variety: Asahi) seedling (5 seedlings/stub, one stub/pot) grown in a pot ( 1/10000 are in size) filled with paddy soil (flooded) within a greenhouse. After growing for 1 week within a greenhouse, a culture of rice sheath blight fungus (Thanatephorus cucumeris) grown in advance on a rice straw medium was inoculated into the root of the formulation-treated paddy rice, and disease development was promoted in an artificial weather chamber at 26° C. (relative humidity=100%). Seven days after the inoculation, the rice sheath blight lesion height (height from the root) was examined, and the control value (%) was calculated according to formula (d). […] This test was performed with three replications, each consisting of one plot and one pot, per one formulation plot, and its average evaluation value of control effect was determined.
Assay [3] concerns rice blast fungus (Pyricularia grisea). It is filed as in vivo. The note with it: 5 g of granule on nursery box, paddy rice; inoculated after 3 weeks; 7 days after inoculation.
For assay [4], the system named is rice sheath blight fungus (Thanatephorus cucumeris). In words: Test Example 6: control effect against rice sheath blight by box treatment (flowable formulation). To be noted: flowable 5,000 ppm, 50 mL irrigation of nursery box, paddy rice; inoculated after 3 weeks; 7 days after inoculation.
Description: as §1
By irrigation, 50 mL of a diluted solution (5,000 ppm) of a flowable prepared according to Formulation Example-3 was applied to a 2.5-leaf-stage paddy rice (variety: Asahi) seedling raised using a nursery box ( 1/10 the area of standard nursery box in size: 12 cm×15 cm×height 4 cm) within a greenhouse. The formulation-treated paddy rice seedling was immediately transplanted at 5 seedlings/pot into a pot ( 1/10000 are in size) filled with paddy soil (flooded). After growing for 3 weeks within a greenhouse, a culture of rice sheath blight fungus (Thanatephorus cucumeris) grown in advance on a rice straw medium was inoculated into the root of the formulation-treated paddy rice, and disease development was promoted in an artificial weather chamber at 26° C. (relative humidity=100%). Seven days after the inoculation, the rice sheath blight lesion height (height from the root) was examined, and the control value (%) was calculated according to formula (d). […] This test was performed with three replications, each consisting of one plot and one pot, per one formulation plot, and its average evaluation value of control effect was determined.
The test system of assay [5] is rice blast fungus (Pyricularia grisea). It is filed as in vivo. The note with it: flowable 5,000 ppm, 50 mL irrigation of nursery box, paddy rice; inoculated after 3 weeks; 7 days after inoculation.
The test system is the same in assay [6]. It is filed as in vivo. The note with it: flowable 1,000 ppm, 1 mL dripped in paddy water, inoculated after 1 week, 7 days after inoculation.
The subject of assay [7] is barley powdery mildew fungus (Erysiphe graminis). In words: Test Example 2: control effect against barley powdery mildew by foliage application. The note with it: wettable powder diluted to 100 ppm, 10 mL per pot foliage spray on barley; inoculated day after; 7 days after inoculation. It is filed as in vivo.
Assay [8] concerns rice blast fungus (Pyricularia grisea). It is filed as in vivo. To be noted: flowable diluted to 100 ppm, 10 mL per pot foliage spray on paddy rice; inoculated day after; 7 days after inoculation.

Take `Cc1nnsc1C(=O)N(C(=O)c1cn(C)nc1C(F)F)c1ccccc1C(C)CC(C)C` (centres unmarked) [1-146, N-{3-(Difluoromethyl)-1-methylpyrazole-4-carbonyl}-N-{2-(1,3-dimethylbutyl)phenyl}-4-methylthiadiazole-5-carboxamide]: the “evaluation value of control effect (from control value, lesion height)” value in assay [1], in assay [2] and in assay [4] was 5 throughout. Moreover, the “evaluation value of control effect (from control value, number of lesions)” value was found to be 5 in assay [3], 5 in assay [5], 5 in assay [6] and 4 in assay [8]. In addition, the “evaluation value of control effect (from control value, lesion area percentage)” value in assay [7] is given as 4.

`CC(C)CC(C)c1ccccc1N(C(=O)c1cn(C)nc1C(F)F)C(=O)c1snnc1C(F)F` (centres unmarked) [1-237]: the “evaluation value of control effect (from control value, lesion height)” value in assay [1], in assay [2] and in assay [4] was 5 in each case. The “evaluation value of control effect (from control value, number of lesions)” value is 5 in assay [3], 5 in assay [5], 5 in assay [6] and 4 in assay [8]. For the same compound, the “evaluation value of control effect (from control value, lesion area percentage)” value in assay [7] was 5.

`Cc1nc(C(F)F)c(C(=O)N(C(=O)c2cn(C)nc2C(F)F)c2ccccc2CCC(C)C)s1` [1-313]: the “evaluation value of control effect (from control value, lesion height)” value in assay [1], in assay [2] and in assay [4] was 5 in each case. Besides, the “evaluation value of control effect (from control value, number of lesions)” value in assay [3] was 5; in assay [5], 5; in assay [6], 5; in assay [8] it was 4. In addition, in assay [7], the “evaluation value of control effect (from control value, lesion area percentage)” value worked out at 4.

On to `Cn1cc(C(=O)N(C(=O)c2scnc2C(F)F)c2ccccc2-c2cc(F)c(F)c(F)c2)c(C(F)F)n1` [1-370], for which the “evaluation value of control effect (from control value, lesion height)” value in assay [1], in assay [2] and in assay [4] was 5 each time. Further, the “evaluation value of control effect (from control value, number of lesions)” value in assay [3] is given as 5; in assay [5], 5; in assay [6], 5; in assay [8], 4. For the same compound, the “evaluation value of control effect (from control value, lesion area percentage)” value in assay [7] is 4.

On to `Cn1cc(C(=O)N(C(=O)c2onc(Cl)c2Cl)c2ccccc2-c2cc(F)c(F)c(F)c2)c(C(F)F)n1` [1-374], for which the “evaluation value of control effect (from control value, lesion height)” value in assay [1], in assay [2] and in assay [4] was 5 in each case. Also, the “evaluation value of control effect (from control value, number of lesions)” value in assay [3] is on record as 5; in assay [5] it was 5; in assay [6], 5; in assay [8], 4. For the same compound, the “evaluation value of control effect (from control value, lesion area percentage)” value in assay [7] is listed as 4.

On to `Cc1nn(C)c(F)c1C(=O)N(C(=O)c1cc(Cl)no1)c1ccccc1C(C)CC(C)C` (centres unmarked) [1-376], for which the “evaluation value of control effect (from control value, lesion height)” value in assay [1], in assay [2] and in assay [4] was 5 in each case. The “evaluation value of control effect (from control value, number of lesions)” value was 5 in assay [3], 5 in assay [5], 5 in assay [6] and 4 in assay [8]. Besides, in assay [7], the “evaluation value of control effect (from control value, lesion area percentage)” value was 4.

Regarding `CC(C)CC(C)c1sccc1N(C(=O)c1cn(C)nc1C(F)F)C(=O)c1snc(Cl)c1Cl` (centres unmarked) [5-5], the “evaluation value of control effect (from control value, lesion height)” value in assay [1], in assay [2] and in assay [4] was 5 throughout. Besides, the “evaluation value of control effect (from control value, number of lesions)” value is on record as 5 in assay [3], 5 in assay [5], 5 in assay [6] and 4 in assay [8]. The “evaluation value of control effect (from control value, lesion area percentage)” value in assay [7] is 5.

Regarding `Cc1nnsc1C(=O)N(C(=O)c1cn(C)nc1C(F)F)c1ccsc1C(C)CC(C)C` (centres unmarked) [5-23], the “evaluation value of control effect (from control value, lesion height)” value in assay [1], in assay [2] and in assay [4] was 5 each time. Moreover, the “evaluation value of control effect (from control value, number of lesions)” value is listed as 5 in assay [3], 5 in assay [5], 5 in assay [6] and 4 in assay [8]. In addition, the “evaluation value of control effect (from control value, lesion area percentage)” value in assay [7] was determined as 5.

For `Cc1cc(C(=O)N(C(=O)c2scnc2C(F)F)c2ccccc2C(C)CC(C)C)sn1` (centres unmarked) [7-134], the “evaluation value of control effect (from control value, lesion height)” value in assay [1], in assay [2] and in assay [4] was 5 in each case. Also, the “evaluation value of control effect (from control value, number of lesions)” value amounted to 5 in assay [3], 5 in assay [5], 5 in assay [6] and 4 in assay [8]. For the same compound, in assay [7], the “evaluation value of control effect (from control value, lesion area percentage)” value is given as 4.

Regarding `Cc1nsc(C(=O)N(C(=O)c2scnc2C(F)F)c2ccccc2C(C)CC(C)C)c1Cl` (centres unmarked) [7-141], the “evaluation value of control effect (from control value, lesion height)” value in assay [1], in assay [2] and in assay [4] was 5 each time. The “evaluation value of control effect (from control value, number of lesions)” value in assay [3] turned out to be 5; in assay [5] it was 5; in assay [6], 5; in assay [8], 4. In assay [7], the “evaluation value of control effect (from control value, lesion area percentage)” value amounted to 4.

Consider `CCc1nc(C(F)F)c(C(=O)N(C(=O)c2sc(C)nc2C(F)F)c2ccccc2C(C)CC(C)C)s1` (centres unmarked) [7-216], for which the “evaluation value of control effect (from control value, lesion height)” value in assay [1], in assay [2] and in assay [4] was 5 in each case. Also, the “evaluation value of control effect (from control value, number of lesions)” value in assay [3] was 5; in assay [5] it was 5; in assay [6] it was 5; in assay [8] it was 4. For the same compound, in assay [7], the “evaluation value of control effect (from control value, lesion area percentage)” value was found to be 4.

In the case of `Cc1nc(C(F)F)c(C(=O)N(C(=O)c2sc(C)nc2C(F)(F)F)c2ccccc2C(C)CC(C)C)s1` (centres unmarked) [7-226], the “evaluation value of control effect (from control value, lesion height)” value in assay [1], in assay [2] and in assay [4] was 5 throughout. The “evaluation value of control effect (from control value, number of lesions)” value in assay [3] was 5; in assay [5], 5; in assay [6] it was 5; in assay [8], 4. The “evaluation value of control effect (from control value, lesion area percentage)” value in assay [7] was found to be 4.

`Cc1nc(C(F)F)c(C(=O)N(C(=O)c2sc(C)nc2C(F)F)c2ccccc2C(C)CC(C)C)s1` (centres unmarked) [7-238, 4-Difluoromethyl-N-{4-(difluoromethyl)-2-methyl-thiazole-5-carbonyl}-N-{2-(1,3-dimethylbutyl)phenyl}-2-methyl-thiazole-5-carboxamide]: the “evaluation value of control effect (from control value, lesion height)” value in assay [1], in assay [2] and in assay [4] was 5 each time. For the same compound, the “evaluation value of control effect (from control value, number of lesions)” value in assay [3] stood at 5; in assay [5], 5; in assay [6], 5; in assay [8] it was 4. Further, in assay [7], the “evaluation value of control effect (from control value, lesion area percentage)” value is recorded as 5.
